Test results taken from patent publication US9963448B2, “Bicyclic inhibitors of PAD4” (Padlock Therapeutics, Inc., priority 2015, dated 2018).
Where a name gives a salt, the structure may show the parent alone. Read-outs that look alike come from different tables or passages of the source.

Columns and labels:
[1] = biological target: hPAD4 (Homo sapiens, UniProt Q9UM07); test: hPAD4 RFMS (RapidFire mass spectrometry) PAD4 inhibition assay; format: biochemical; conditions: hPAD4 enzyme, RFMS readout;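 for hPAD4 RFMS pIC50: grade E means pIC50 at most 4 and F means pIC50 4.0 to 5.0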
Method: (§1) Compounds of the present invention were assayed as inhibitors of PAD4 using the assay protocol described below.
(§2) Compound stock solutions were stored at RT. […] Final assay conditions were as follows:
(§3) Total incubation time: 65 mins at 37° C.
(§4) Stop solution: 40 μl 5% TCA in ACN
(§5) The compound numbers correspond to the compound numbers in Table 1. […] The term pIC50=−log(IC50). […] “NA” stands for “not assayed.”

[2] = biological target: mPAD4 (Mus musculus, UniProt Q9Z183); test: mPAD4 RFMS PAD4 inhibition assay; format: biochemical; conditions: mPAD4, RFMS readout;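 for mPAD4 RFMS pIC50: grade E means pIC50 at most 4 and F means pIC50 4.0 to 5.0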
Method: as §1, §2, §3, §4, §5

[3] = pIC50=−log(IC50), read-out: hPAD4 RFMS pIC50 (converted)
[4] = pIC50=−log(IC50), read-out: mPAD4 RFMS pIC50 (converted)

Chain of mPAD4 (Q9Z183 whole entry): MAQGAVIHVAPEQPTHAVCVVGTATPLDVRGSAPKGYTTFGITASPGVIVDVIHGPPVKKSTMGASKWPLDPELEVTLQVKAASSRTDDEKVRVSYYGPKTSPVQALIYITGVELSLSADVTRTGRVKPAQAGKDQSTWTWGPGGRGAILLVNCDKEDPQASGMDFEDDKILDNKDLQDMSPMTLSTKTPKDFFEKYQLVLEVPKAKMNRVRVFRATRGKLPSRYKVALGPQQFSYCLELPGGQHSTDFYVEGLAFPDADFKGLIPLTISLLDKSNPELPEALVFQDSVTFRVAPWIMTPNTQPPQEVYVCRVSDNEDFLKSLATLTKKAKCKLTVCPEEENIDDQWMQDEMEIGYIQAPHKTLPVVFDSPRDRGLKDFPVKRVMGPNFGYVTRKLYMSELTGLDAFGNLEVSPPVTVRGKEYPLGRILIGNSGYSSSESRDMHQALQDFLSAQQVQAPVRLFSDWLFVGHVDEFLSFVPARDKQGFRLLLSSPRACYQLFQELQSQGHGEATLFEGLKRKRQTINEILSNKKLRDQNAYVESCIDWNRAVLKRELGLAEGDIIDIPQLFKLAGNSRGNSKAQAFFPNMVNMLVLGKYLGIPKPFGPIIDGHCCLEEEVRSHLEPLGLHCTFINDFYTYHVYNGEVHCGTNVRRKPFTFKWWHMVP
Chain of hPAD4 (Q9UM07 whole entry): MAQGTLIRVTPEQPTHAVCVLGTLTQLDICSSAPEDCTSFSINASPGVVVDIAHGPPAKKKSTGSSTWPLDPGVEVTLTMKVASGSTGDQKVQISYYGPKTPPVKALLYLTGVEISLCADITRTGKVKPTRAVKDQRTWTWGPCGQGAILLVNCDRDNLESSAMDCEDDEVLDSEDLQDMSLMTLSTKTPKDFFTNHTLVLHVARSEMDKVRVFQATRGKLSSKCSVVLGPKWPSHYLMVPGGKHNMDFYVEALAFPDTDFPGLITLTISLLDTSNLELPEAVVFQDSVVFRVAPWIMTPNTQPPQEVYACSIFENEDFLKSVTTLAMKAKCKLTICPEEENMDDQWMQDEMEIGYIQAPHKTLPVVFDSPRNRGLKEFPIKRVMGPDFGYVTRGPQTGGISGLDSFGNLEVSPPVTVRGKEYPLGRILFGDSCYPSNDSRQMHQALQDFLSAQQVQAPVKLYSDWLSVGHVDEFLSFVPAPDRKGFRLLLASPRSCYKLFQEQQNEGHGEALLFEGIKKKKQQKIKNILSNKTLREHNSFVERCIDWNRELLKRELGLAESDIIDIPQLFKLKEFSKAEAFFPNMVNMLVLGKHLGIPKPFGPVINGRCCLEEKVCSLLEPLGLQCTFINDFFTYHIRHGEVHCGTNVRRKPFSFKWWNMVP

| Structure (SMILES) | IC50 [1, 3] [nM] | IC50 ([1]; read-out: hPAD4 RFMS IC50) [nM] | IC50 [2, 4] [nM] | IC50 ([2]; read-out: mPAD4 RFMS IC50) [nM] | mPAD4 RFMS pIC50 ([2]; pIC50=−log(IC50)) | hPAD4 RFMS pIC50 ([1]; pIC50=−log(IC50)) |
| --- | --- | --- | --- | --- | --- | --- |
| COc1cc(C(=O)N2C[C@H]3CC[C@@H]2[C@@H]3N)cc2nc(-c3cc4cccnc4n3CC3CC3)n(CC3CCOC3)c12 (stereo partly shown) [Compound I-217] | < 1000 | < 1000 | < 1000 | < 1000 | – | – |
| CO[C@@H]1CCN(C(=O)c2ccc3c(c2)nc(-c2cc4cccnc4n2CC2CC2)n3C)C[C@@H]1N (single isomer, unassigned) [Compound I-64] | 1000 to 10000 | 1000 to 5000 | 1000 to 10000 | 5000 to 10000 | – | – |
| COc1ccc2cc(-c3nc4cc(C(=O)N5C[C@H]6CC[C@@H]5[C@@H]6N)cc(F)c4n3C)n(CC3CC3)c2n1 [Compound I-230] | < 1000 | < 1000 | < 1000 | < 1000 | – | – |
| COc1cc(C(=O)N2C[C@@H](N)CC[C@@H]2CO)cc2nc(-c3cc4cccnc4n3CC3CC3)n(C)c12 (single isomer, unassigned) [Compound I-227] | 10000 to 100000 | > 10000 | – | > 10000 | E/F | – |
| Cn1c(-c2cc3cccnc3n2CC2CC2)nc2cc(C(=O)N3C[C@@H](N)C[C@H](F)C3)cc(OCC(F)F)c21 [Compound I-72] | 1000 to 10000 | 1000 to 5000 | < 1000 | < 1000 | – | – |
| CCn1c(-c2nc3cc(C(=O)N4C[C@H](N)C[C@@H](F)C4)cc(OC)c3n2C[C@H]2C[C@@](C)(OC)C2)cc2ccc(OC)nc21 [Compound I-205] | < 1000 | < 1000 | < 1000 | < 1000 | – | – |
| COc1cc(C(=O)N2C[C@H]3CC[C@@H]2[C@@H]3N)cc2nc(-c3cc4cccnc4n3CC3CC3)n(CC(F)F)c12 [Compound I-234] | – | < 1000 | 1000 to 10000 | 1000 to 5000 | – | H (pIC50 of ≥6) |
| COc1cc(C(=O)N2CCC[C@@H](N)C2)cc2nc(-c3cc4ccc(C)nc4n3CC3CC3)n(C)c12 [Compound I-199] | < 1000 | < 1000 | < 1000 | < 1000 | – | – |
| CCn1c(-c2nc3cc(C(=O)N4C[C@H]5CC[C@@H]4[C@@H]5N)cc(OC)c3n2C)cc2ccc(OC(F)F)nc21 [Compound I-200, (1R,4R,7R)-2-{2-[6-(difluoromethoxy)-1-ethyl-1H-pyrrolo[2,3-b]pyridin-2-yl]-7-methoxy-1-methyl-1H-1,3-benzodiazole-5-carbonyl}-2-azabicyclo[2.2.1]heptan-7-amine] | < 1000 | < 1000 | < 1000 | < 1000 | – | – |
| COc1cc(C(=O)N2CC3(CCC3N)C2)cc2nc(-c3cc4cccnc4n3CC3CC3)n(C)c12 (stereo not shown) [Compound I-85] | 10000 to 100000 | > 10000 | 10000 to 100000 | > 10000 | – | – |
| COc1cc(C(=O)N2CC3CCC2C(N)C3)cc2nc(-c3cc4cccnc4n3CC3CC3)n(C)c12 (stereo not shown) [Compound I-129] | 1000 to 10000 | 1000 to 5000 | 1000 to 10000 | 1000 to 5000 | – | – |
| COc1ccc2cc(-c3nc4cc(C(=O)N5C[C@H]6CC[C@@H]5[C@@H]6N)cc(OC)c4n3C)n(CC3CC3)c2n1 [Compound I-188] | < 1000 | < 1000 | < 1000 | < 1000 | – | – |
| COc1ccc2cc(-c3nc4cc(C(=O)N5C[C@H](N)C[C@@H](F)C5)cc(OC(F)F)c4n3C)n(CC3CC3)c2n1 [Compound I-109, (3R,5R)-1-{2-[1-(cyclopropylmethyl)-6-methoxy-1H-pyrrolo[2,3-b]pyridin-2-yl]-7-(difluoromethoxy)-1-methyl-1H-1,3-benzodiazole-5-carbonyl}-5-fluoropiperidin-3-amine] | < 1000 | < 1000 | < 1000 | < 1000 | – | – |
| Cn1c(-c2cc3cccnc3n2CC2CC2)nc2cc(C(=O)N3C[C@H]4CC[C@@H]3[C@@H]4N)c(F)cc21 [Compound I-194] | 1000 to 10000 | 1000 to 5000 | 1000 to 10000 | 5000 to 10000 | – | – |
| COc1cc(C(=O)N2C[C@H]3CC[C@@H]2[C@@H](N)C3)cc2nc(-c3cc4cccnc4n3CC3CC3)n(C)c12 [Compound I-216] | 10000 to 100000 | > 10000 | 10000 to 100000 | > 10000 | – | – |
| COc1ccc2cc(-c3nc4cc(C(=O)N5CCC[C@@H](N)C5)ccc4n3C)n(CC3CC3)c2n1 [Compound I-70, (3R)-1-{2-[1-(Cyclopropylmethyl)-6-methoxy-1H-pyrrolo[2,3-b]pyridin-2-yl]-1-methyl-1H-1,3-benzodiazole-5-carbonyl}piperidin-3-amine] | < 1000 | < 1000 | < 1000 | < 1000 | – | – |
| COc1cc(C(=O)N2C[C@H]3CC[C@@H]2[C@@H]3N)cc2nc(-c3cc4cccnc4n3CC3CC3)n(C[C@H]3CCOC3)c12 [Compound I-231] | < 1000 | < 1000 | < 1000 | < 1000 | – | – |
| CCn1c(-c2nc3cc(C(=O)N4C[C@H]5CC[C@@H]4[C@@H]5N)cc(OC)c3n2CCOC)cc2cccnc21 [Compound I-175] | < 1000 | < 1000 | 1000 to 10000 | 1000 to 5000 | – | – |
| CCn1c(-c2nc3cc(C(=O)N4C[C@H]5CC[C@@H]4[C@@H]5N)cc(OC)c3n2[C@H]2C[C@@H](OC)C2)cc2cccnc21 [Compound I-218] | 1000 to 10000 | 1000 to 5000 | 1000 to 10000 | 1000 to 5000 | – | – |
| COc1cc(C(=O)N2C[C@H]3CC[C@@H]2[C@@H]3N)cc2nc(-c3cc4cccnc4n3CC3CC3)n([C@H]3C[C@@H](F)C3)c12 [Compound I-225] | < 1000 | < 1000 | < 1000 | < 1000 | – | – |
| COc1cc(C(=O)N2C[C@H](N)CC[C@@H]2CO)cc2nc(-c3cc4cccnc4n3CC3CC3)n(C)c12 (single isomer, unassigned) [Compound I-228] | 1000 to 10000 | 5000 to 10000 | 1000 to 10000 | 1000 to 5000 | – | – |
| COc1cc(C(=O)N2CCC[C@@H](N)C2)cc2nc(-c3cc4cccnc4n3CC3CC(C)(O)C3)n(C)c12 (stereo partly shown) [Compound I-113] | 1000 to 10000 | 1000 to 5000 | 1000 to 10000 | 5000 to 10000 | – | – |
| CO[C@@H]1CCN(C(=O)c2cc(OC(F)F)c3c(c2)nc(-c2cc4cccnc4n2CC2CC2)n3C)C[C@@H]1N [Compound I-133] | – | > 10000 | – | 1000 to 5000 | G (pIC50 of 5.0-6.0) | F (pIC50 of 4.0-5.0) |
| COc1cc(C(=O)N2CC[C@H](F)[C@H](N)C2)cc2nc(-c3cc4cccnc4n3CC3CC3)n(C)c12 [Compound I-90] | 1000 to 10000 | 1000 to 5000 | 1000 to 10000 | 1000 to 5000 | – | – |
| COCCn1c(-c2cc3cccnc3n2CC2CC2)nc2cc(C(=O)N3C[C@H]4CC[C@@H]3[C@@H]4N)cc(OC)c21 [Compound I-178] | < 1000 | < 1000 | < 1000 | < 1000 | – | – |
| CC(=O)Nc1ccnc2c1cc(-c1nc3cc(C(=O)N4CCC[C@@H](N)C4)ccc3n1C)n2CC1CC1 [Compound I-69, N-(2-{5-[(3R)-3-Aminopiperidine-1-carbonyl]-1-methyl-1H-1,3-benzodiazol-2-yl}-1-(cyclopropylmethyl)-1H-pyrrolo[2,3-b]pyridin-4-yl)acetamide] | 1000 to 10000 | < 1000 | 10000 to 100000 | > 10000 | – | – |
| Cc1cc2c(cc1C(=O)N1CCC[C@@H](N)C1)nc(-c1cc3cccnc3n1CC1CC1)n2C [Compound I-103, (3R)-1-{2-[1-(cyclopropylmethyl)-1H-pyrrolo[2,3-b]pyridin-2-yl]-1,6-dimethyl-1H-1,3-benzodiazole-5-carbonyl}piperidin-3-amine hydrochloride] | 10000 to 100000 | > 10000 | 10000 to 100000 | > 10000 | – | – |
| COc1ccc2cc(-c3nc4cc(C(=O)N5C[C@H](N)C[C@@H](F)C5)cc(OC)c4n3C)n(CC3CC3)c2n1 [Compound I-123] | < 1000 | < 1000 | < 1000 | < 1000 | – | – |
